According to BindingDB's records for doi:10.7270/Q2TD9VTQ (Burnham Center For Chemical Genomics, 2010):

These compounds were tested against T1, Caspase-1 (Homo sapiens, UniProt P29466) (assay: CASP1/ASC signal blockers in yeast, IC50, counter-screen for NLRP1 inhibitor project (AID 488863)).
T1 sequence (P29466 whole entry): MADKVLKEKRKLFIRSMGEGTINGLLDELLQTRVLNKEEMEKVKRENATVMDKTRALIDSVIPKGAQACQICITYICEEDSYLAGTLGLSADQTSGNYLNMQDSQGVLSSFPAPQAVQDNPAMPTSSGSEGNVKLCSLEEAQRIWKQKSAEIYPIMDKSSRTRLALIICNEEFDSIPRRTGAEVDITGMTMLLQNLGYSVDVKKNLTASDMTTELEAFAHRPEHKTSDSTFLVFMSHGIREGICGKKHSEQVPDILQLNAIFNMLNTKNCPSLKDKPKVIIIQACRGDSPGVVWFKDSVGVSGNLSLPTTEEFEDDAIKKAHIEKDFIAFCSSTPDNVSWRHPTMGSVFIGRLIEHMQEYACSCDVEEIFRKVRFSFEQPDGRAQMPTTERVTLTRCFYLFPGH
Work on `Cc1ccc(-n2c(O)cc(Sc3ccccc3C(=O)O)c2O)cc1` yielded an IC50 of 20.6 µM. In the case of `COc1ccccc1-n1c(O)c2c(c1O)CC(c1ccccc1)CC2` (stereo not drawn), the IC50 is reported as greater than 100 µM. `Oc1cc(Sc2nnnn2-c2ccccc2)c(O)n1-c1cccc(Cl)c1` was tested, and the IC50 was 5.13 µM.
